Reference: patent US20100075907A1, “NEUROMEDIN U RECEPTOR AGONISTS AND USES THEREOF” (priority 2006, published 2010)
Non-standard residues stand in square brackets, D forms with d. Residues, ends and D or L forms follow the SMILES beside them. No end group written: not given here. *: point of attachment. X1 = CC(C)CCC[C@@H](C)[C@H]1CC[C@H]2[C@@H]3CC=C4C[C@@H](OC(=O)C*)CC[C@]4(C)[C@H]3CC[C@]12C; Succinimide(1-Et,3-yl) = CCN1C(=O)CC(*)C1=O; Palmitoyl = CCCCCCCCCCCCCCCC(=O)*

Tests used:
Mouse NMUR1-CTG = molecular target: T1, Mouse NMUR1-CTG (Mus musculus, UniProt O55040); test: FLIPR calcium mobilization assay, mouse NMUR1-CTG; assay type: cell-based; set-up: expressed in transfected cells; host or cells: FLP-In CHO or HEK-293 FLP-In cells (pcDNA5); conditions: for EC50: FLIPR
T1 sequence (O55040 1-428): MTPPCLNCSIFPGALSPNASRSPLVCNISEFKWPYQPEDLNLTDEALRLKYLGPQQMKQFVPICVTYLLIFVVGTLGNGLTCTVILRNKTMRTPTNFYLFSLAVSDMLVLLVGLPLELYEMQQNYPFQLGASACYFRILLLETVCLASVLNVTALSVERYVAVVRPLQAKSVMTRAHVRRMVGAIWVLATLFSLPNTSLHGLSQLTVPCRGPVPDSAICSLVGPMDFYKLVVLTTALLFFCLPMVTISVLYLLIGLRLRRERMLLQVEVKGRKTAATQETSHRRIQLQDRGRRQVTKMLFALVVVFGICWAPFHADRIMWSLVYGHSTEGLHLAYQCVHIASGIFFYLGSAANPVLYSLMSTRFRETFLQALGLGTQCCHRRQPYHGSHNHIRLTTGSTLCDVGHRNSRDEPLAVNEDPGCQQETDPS
Excerpt: (§1) Human, mouse or rat cDNAs encoding NMUR1 or NMUR2 (as described in Howard et al. Nature 406: 70-74 (2000) were subcloned in pcDNA5 (Invitrogen) and transfected into FLP-In CHO cells and HEK-293 FLP-In cells purchased from Invitrogen (Carlsbad, Calif.) using lipofectamine (Invitrogen). The Flp-In system allows integration and expression of a particular gene of interest at a specific genomic location utilizing the Flp recombinase from yeast. The transfected cells were selected by growth in medium containing 200 μg/mL hygromycin (Invitrogen). Populations were frozen at early passage numbers, and these stocks were used for further studies. Stable clones that expressed the mRNAs were identified functionally by FLIPR as well as by RT-PCR. […] Two different rodent NMUR1 cell lines were thus generated: one with the codon as predicted from the genomic databases and another cell line with an engineered methionine (ATG) as the start codon. Additionally, stable cell lines expressing the human receptors were generated in HEK-293/aeq17 cells which stably express the aequorin gene under the CMV promoter. The human NMUR2 cDNA was cloned into pcDNA3.1 and human NMUR1 was subcloned into pIRES-puro (Clontech, Mountain View, Calif.), after transfection cells were selected in media containing G418 and either hygromycin (NMUR2) or puromycin (NMUR1).
(§2) The NMU receptors signal primarily through Gαq/11 proteins; therefore calcium mobilization assays can be utilized for functional activity.
(§3) Stable cell lines expressing human and or rodent NMUR1 or human NMUR2 receptors were plated at a density of 12,000 cells per well overnight on poly-lysine coated 384-well black-walled plates. The following day, the media was removed from the plates and the cells were subsequently loaded with Fluo-3 (Molecular Probes), a calcium sensitive dye, diluted in FLIPR buffer (1× Hank's buffered saline containing 20 mM HEPES, 0.1% BSA, 2.5 mM probenecid (Sigma) and 1.6 mM TR40). All reagents are from Invitrogen unless otherwise noted. Peptide stocks were resuspended in DMSO at a stock concentration of 2 mM and diluted in FLIPR buffer on the day of the experiment to a 4 μM working stock solution.
(§4) After a 90 minute incubation at room-temperature, cell plates were loaded onto a FLIPR (Molecular Devices) to monitor cellular fluorescence (excitation=488 nm; emission=540 nm) before and after compound/peptide addition. Eight to twelve point dose responses were tested on NMUR-expressing cell lines using FLIPR with 1 μM peptide as the highest dose. The response after peptide addition was taken as the maximum fluorescence units minus the fluorescence immediately prior to stimulation for each well. EC50 values were calculated using GraphPad Prism (San Diego, Calif.) software.
(§5) In vitro responses of Neuromedin U receptor agonists (NMU1 to NMU25) in the FLIPR assay for human (Table 3), mouse (Table 4) and rat (Table 5) NMUR1 and NMUR2. EC50s are reported in nM values. Percent activity refers to the maximum response at 1 μM compared to the hNMU-25 response at the same concentration. NT=not tested.

rat NMUR2 = rat NMUR2 (Rattus norvegicus, UniProt Q9ESQ4); test: FLIPR calcium mobilization assay, rat NMUR2; assay type: cell-based; set-up: expressed in transfected cells; host or cells: FLP-In CHO or HEK-293 FLP-In cells (pcDNA5); conditions: for EC50: FLIPR
Excerpt: as §1, §2, §3, §4, §5

[1] = maximum response at 1 μM compared to hNMU-25, mouse NMUR1-CTG
[2] = maximum response at 1 μM compared to hNMU-25, rat NMUR2

Chain of rat NMUR2 (Q9ESQ4 whole entry): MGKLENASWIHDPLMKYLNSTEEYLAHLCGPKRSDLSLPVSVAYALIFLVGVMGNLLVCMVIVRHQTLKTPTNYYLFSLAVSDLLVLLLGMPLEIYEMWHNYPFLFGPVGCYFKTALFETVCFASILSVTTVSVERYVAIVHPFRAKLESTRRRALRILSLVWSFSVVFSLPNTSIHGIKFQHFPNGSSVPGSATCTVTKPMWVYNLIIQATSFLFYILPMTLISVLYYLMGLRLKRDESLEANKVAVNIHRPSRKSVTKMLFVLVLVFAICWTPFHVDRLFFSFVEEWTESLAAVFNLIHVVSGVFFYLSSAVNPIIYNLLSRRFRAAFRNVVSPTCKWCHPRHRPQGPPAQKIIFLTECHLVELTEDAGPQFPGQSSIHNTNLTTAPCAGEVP

Row | Compound | EC50 (Mouse NMUR1-CTG; mouse NMUR1-CTG) [nM] | % Activity (Mouse NMUR1-CTG; [1]) [%] | % Activity (rat NMUR2; [2]) [%] | EC50 (rat NMUR2; rat NMUR2) [nM] | IC50 (Mouse NMUR1-CTG; functional data, mouse R1-CTG) [nM] | % Activity (Mouse NMUR1-CTG; functional, mouse R1-CTG, relative to native hNMU responses) [%] | IC50 (rat NMUR2; functional data, rat R2) [nM] | % Activity (rat NMUR2; functional, rat R2, relative to native hNMU responses) [%]
1 | CCN1C(=O)CC(SC[C@H](NC(C)=O)C(=O)N[C@@H](C)C(=O)N[C@@H](CO)C(=O)N[C@@H](CCC(N)=O)C(=O)N[C@@H](CO)C(=O)N[C@@H](CCCNC(=N)N)C(=O)NCC(=O)N[C@@H](Cc2ccc(O)cc2)C(=O)N[C@@H](Cc2ccccc2)C(=O)N[C@@H](CC(C)C)C(=O)N[C@@H](Cc2ccccc2)C(=O)N[C@@H](CCCNC(=N)N)C(=O)N2CCC[C@H]2C(=O)N[C@@H](CCCNC(=N)N)C(=O)N[C@@H](CC(N)=O)C(N)=O)C1=O (stereo partly drawn) [NMU17] (Ac-C(Succinimide(1-Et,3-yl))ASQSRGYFLFRPRN-NH2) | 2.9 | 116.6 | 100 |  |  |  |  | 
2 | CCCCCCCCCCCCCCCC(=O)N[C@@H](CSC1CC(=O)N(CC)C1=O)C(=O)N[C@@H](Cc1ccccc1)C(=O)N[C@@H](CCCNC(=N)N)C(=O)N[C@H](C(=O)N[C@@H](CC(=O)O)C(=O)N[C@@H](CCC(=O)O)C(=O)N[C@@H](CCC(=O)O)C(=O)N[C@@H](Cc1ccccc1)C(=O)N[C@@H](CCC(N)=O)C(=O)N[C@@H](CO)C(=O)N1CCC[C@H]1C(=O)N[C@@H](Cc1ccccc1)C(=O)N[C@@H](C)C(=O)N[C@@H](CO)C(=O)N[C@@H](CCC(N)=O)C(=O)N[C@@H](CO)C(=O)N[C@@H](CCCNC(=N)N)C(=O)NCC(=O)N[C@@H](Cc1ccc(O)cc1)C(=O)N[C@@H](Cc1ccccc1)C(=O)N[C@@H](CC(C)C)C(=O)N[C@@H](Cc1ccccc1)C(=O)N[C@@H](CCCNC(=N)N)C(=O)N1CCC[C@H]1C(=O)N[C@@H](CCCNC(=N)N)C(=O)N[C@@H](CC(N)=O)C(N)=O)C(C)C (stereo partly drawn) [NMU24] (Palmitoyl-C(Succinimide(1-Et,3-yl))FRVDEEFQSPFASQSRGYFLFRPRN-NH2) |  | 56.1 | 52.2 |  |  |  |  | 
3 | H-FRVDEEFQSPFASQSRPYFLFRPRN-NH2 [NMU4] |  | 100 | 100 |  |  |  |  | 
4 | Ac-FRVDEEFQSPFASQSRPYFLFRPRN-NH2 [NMU5] |  | 100 | 100 |  |  |  |  | 
5 | Ac-C4-C4-FRVDEEFQSPFASQSRGYFLFRPRN-CONH2 ({Ac-C(PEG 20 kDa)-C(PEG 20 kDa)}-FRVDEEFQSPFASQSRGYFLFRPRN-NH2) [NMU23, C4 = Cys(PEG)20 kDa] | 770 | 50.9 | 90.2 | 47.4 |  |  |  | 
6 | CCN1C(=O)CC(SC[C@H](NC(C)=O)C(=O)N[C@@H](Cc2ccccc2)C(=O)N[C@@H](CCCNC(=N)N)C(=O)N[C@H](C(=O)N[C@@H](CC(=O)O)C(=O)N[C@@H](CCC(=O)O)C(=O)N[C@@H](CCC(=O)O)C(=O)N[C@@H](Cc2ccccc2)C(=O)N[C@@H](CCC(N)=O)C(=O)N[C@@H](CO)C(=O)N2CCC[C@H]2C(=O)N[C@@H](Cc2ccccc2)C(=O)N[C@@H](C)C(=O)N[C@@H](CO)C(=O)N[C@@H](CCC(N)=O)C(=O)N[C@@H](CO)C(=O)N[C@@H](CCCNC(=N)N)C(=O)NCC(=O)N[C@@H](Cc2ccc(O)cc2)C(=O)N[C@@H](Cc2ccccc2)C(=O)N[C@H](C)C(=O)N[C@@H](Cc2c[nH]c3ccccc23)C(=O)N[C@@H](CCCNC(=N)N)C(=O)N2CCC[C@H]2C(=O)N[C@@H](CCCNC(=N)N)C(=O)N[C@@H](CC(N)=O)C(N)=O)C(C)C)C1=O (stereo partly drawn) [NMU13] (Ac-C(Succinimide(1-Et,3-yl))FRVDEEFQSPFASQSRGYF[dA]WRPRN-NH2) | 141 | 73.6 | 0.0 | > 1000 | 14 | 88 | > 1000 | 24
7 | CCN1C(=O)CC(SC[C@H](NC(C)=O)C(=O)N[C@@H](CSC2CC(=O)N(CC)C2=O)C(=O)N[C@@H](Cc2ccccc2)C(=O)N[C@@H](CCCNC(=N)N)C(=O)N[C@H](C(=O)N[C@@H](CC(=O)O)C(=O)N[C@@H](CCC(=O)O)C(=O)N[C@@H](CCC(=O)O)C(=O)N[C@@H](Cc2ccccc2)C(=O)N[C@@H](CCC(N)=O)C(=O)N[C@@H](CO)C(=O)N2CCC[C@H]2C(=O)N[C@@H](Cc2ccccc2)C(=O)N[C@@H](C)C(=O)N[C@@H](CO)C(=O)N[C@@H](CCC(N)=O)C(=O)N[C@@H](CO)C(=O)N[C@@H](CCCNC(=N)N)C(=O)NCC(=O)N[C@@H](Cc2ccc(O)cc2)C(=O)N[C@@H](Cc2ccccc2)C(=O)N[C@@H](CC(C)C)C(=O)N[C@@H](Cc2ccccc2)C(=O)N[C@@H](CCCNC(=N)N)C(=O)N2CCC[C@H]2C(=O)N[C@@H](CCCNC(=N)N)C(=O)N[C@@H](CC(N)=O)C(N)=O)C(C)C)C1=O (stereo partly drawn) [NMU22] (Ac-C(Succinimide(1-Et,3-yl))C(Succinimide(1-Et,3-yl))FRVDEEFQSPFASQSRGYFLFRPRN-NH2) |  | 100 | 98.8 |  |  |  |  | 
8 | Ac-C4FRVDEEFQSPFASQSRGYFLFRPRN-CONH2 ({Ac-C(PEG 20 kDa)}-FRVDEEFQSPFASQSRGYFLFRPRN-NH2) [NMU21, C4 = Cys(PEG)20 kDa] | 56.3 | 90.8 | 99.2 | 7 |  |  |  | 
9 | GYFLFRPRN-NH2 [NMU3] |  | 100 | 100 |  |  |  |  | 
10 | CCN1C(=O)CC(SC[C@H](NC(C)=O)C(=O)NCC(=O)N[C@@H](Cc2ccc(O)cc2)C(=O)N[C@@H](Cc2ccccc2)C(=O)N[C@@H](CC(C)C)C(=O)N[C@@H](Cc2ccccc2)C(=O)N[C@@H](CCCNC(=N)N)C(=O)N2CCC[C@H]2C(=O)N[C@@H](CCCNC(=N)N)C(=O)N[C@@H](CC(N)=O)C(N)=O)C1=O (stereo partly drawn) [NMU6] (Ac-C(Succinimide(1-Et,3-yl))GYFLFRPRN-NH2) |  | 100 | 100 |  |  |  |  | 
11 | Pam-C2FRVDEEFQSPFASQSRGYFLFRPRN-CONH2 ({Palmitoyl-C(PEG 40 kDa)}-FRVDEEFQSPFASQSRGYFLFRPRN-NH2) [NMU25, Pam = palmitoyl; C2 = Cys(PEG)240 kDa] | 60.3 |  | 96.4 | 37.8 |  |  |  | 
12 | Ac-FRVDEEFQSPFASQSRGYFLFRPRN-NH2 [NMU2] |  | 100 | 100 | 2.2 |  |  |  | 
13 | CC(=O)N[C@@H](CSCC(=O)O[C@H]1CC[C@@]2(C)C(=CC[C@H]3[C@@H]4CC[C@H]([C@H](C)CCCC(C)C)[C@@]4(C)CC[C@@H]32)C1)C(=O)NCC(=O)N[C@@H](Cc1ccc(O)cc1)C(=O)N[C@@H](Cc1ccccc1)C(=O)N[C@@H](CC(C)C)C(=O)N[C@@H](Cc1ccccc1)C(=O)N[C@@H](CCCNC(=N)N)C(=O)N1CCC[C@H]1C(=O)N[C@@H](CCCNC(=N)N)C(=O)N[C@@H](CC(N)=O)C(N)=O [NMU11] (Ac-C(X1)GYFLFRPRN-NH2) |  | 65.0 | 33.2 |  |  |  |  | 
